From article PMC7191901, “Hybrid inhibitors of DNA and HDACs remarkably enhance cytotoxicity in leukaemia cells” (Journal of Enzyme Inhibition and Medicinal Chemistry, 2020)
“Also recorded” adds a separate entry of the source. Like-named read-outs stand apart in the source and are kept apart here.

What was measured:
HL-60 cells [1] = assay type: cell-based, human
MCF-7 cells = test: Cell proliferation (MTS) assay, MCF-7; assay type: cell-based; details: Homo sapiens, MCF7, 72 h, read-out: GI50 values, MCF-7
MDA-MB-231 cells = test: Cell proliferation (MTS) assay, MDA-MB-231; assay type: cell-based; details: Homo sapiens, read-out: GI50 values, MDA-MB-231
U-937 cells = test: Cell proliferation (MTS) assay, U-937; assay type: cell-based; details: Homo sapiens, read-out: GI50 values, U-937
A549 cells = test: cells; assay type: cell-based; details: Homo sapiens, A549, 72 h, read-out: GI50, A549
A2780 cells = test: Cell proliferation (MTS) assay, A2780; assay type: cell-based; details: Homo sapiens, read-out: GI50 values, A2780
HL-60 cells [2] = test: Cell proliferation (MTS) assay, HL-60; assay type: cell-based; details: Homo sapiens, read-out: GI50 values, HL-60
MCF-7/ADR cells = test: cells; assay type: cell-based; details: Homo sapiens, NCI/ADR-RES, 72 h, read-out: GI50, MCF-7/ADR
[3] = system: Ac-α-tubulin and Ac-histone H3; assay type: cell-based, human
H1975 cells = test: cells; assay type: cell-based; details: Homo sapiens, NCI-H1975, 72 h, read-out: GI50, H1975
U266 cells = test: cells; assay type: cell-based; details: Homo sapiens, U-266, 72 h, read-out: GI50, U266
[4] = system: PARP, caspase 3, and caspase 8; assay type: cell-based, human
HL-60 cells [5] = assay type: cell-based, human; remark: listed apart in the source
[6] = MDA-MB-231, 3 days (72 h), MTS assay
[7] = U-937, 3 days (72 h), MTS assay
[8] = A2780, 3 days (72 h), MTS assay
[9] = HL-60, 3 days (72 h), MTS assay

SMILES | G2/M fraction (HL-60 cells [1]) [%] | GI50 (MCF-7 cells) [µM] | GI50 (MDA-MB-231 cells; MDA-MB-231, 72 h) [µM] | GI50 (U-937 cells; U-937, 72 h) [µM] | GI50 (A549 cells) [µM] | GI50 (A2780 cells; A2780, 72 h) [µM] | GI50 (HL-60 cells [2]; HL-60, 72 h) [µM] | GI50 (MCF-7/ADR cells) [µM] | acetylation of α-tubulin and histone H3 [3] | GI50 (H1975 cells) [µM] | GI50 (U266 cells) [µM] | concentration required to induce the cleavage of PARP, caspase 3, and caspase 8 [4] [µM] | % DNA content in the tail (HL-60 cells [5]) [%] | GI50 (MCF-7 cells; 3 days, MTS assay) [µM] | GI50 (MDA-MB-231 cells; [6]) [µM] | GI50 (U-937 cells; [7]) [µM] | GI50 (A2780 cells; [8]) [µM] | GI50 (HL-60 cells [2]; [9]) [µM]
O=C(O)CCCc1ccc(N(CCCl)CCCl)cc1 [Chlorambucil] | 32.2 | 393 | > 100 | 37.7 | > 100 | > 100 | 21.1 | > 100 | failed to induce the acetylation of α-tubulin and histone H3; also recorded: little acetylation of α-tubulin and histone H3 | > 100 | > 100 | 30 | 2.1 |  |  |  |  | 
Nc1ccc(CCCC(=O)NO)cc1 [Compound 7, 4–(4-Aminophenyl)-N-hydroxybutanamide] |  |  |  |  |  |  |  |  |  |  |  |  |  | 393 | > 100 | 93 | > 100 | 60.5
CCN(CC)c1ccc(CCCC(=O)NO)cc1 [Compound 8a, 4–(4-(Diethylamino)phenyl)-N-hydroxybutanamide] |  |  |  |  |  |  |  |  |  |  |  |  |  | 282 | 85.1 | > 100 | 81 | 70.3
CCCN(CCC)c1ccc(CCCC(=O)NO)cc1 [Compound 8b, 4–(4-(Dipropylamino)phenyl)-N-hydroxybutanamide] |  |  |  |  |  |  |  |  |  |  |  |  |  | 37.8 | 66.8 | 40.2 | 7.79 | 34.4
